Data: publication PMC5840332, “Disease-associated missense mutations in GluN2B subunit alter NMDA receptor ligand binding and ion channel properties” (Nature Communications, 2018)
Several values for one entry are separate records, joined by “and”; a condition that tells them apart may be missing. Equal entries are not always repeated. Each block holds one compound with its values, some of them ahead of it.

Assays:
[1] = Memantine pKa and ionisation; assay type: physicochemical
[2] = test system: hippocampal neurons expressing GluN2B^WT; assay: Evoked NMDAR-mediated EPSCs in transfected hippocampal neurons; assay type: cell-based, rat; settings: 30 μM memantine, 0 Mg^2+
From the text: (§1) Dissected hippocampi were dissociated from E18 Sprague Dawley rat embryos using procedures and protocols that have been approved by the UK Home Office. They were dissociated into single cells using 0.1% w/v trypsin and serially triturated with flame-polished Pasteur pipettes. […] Neurons were transfected after 10 days in vitro (DIV) with either cDNAs for the GluN2B WT or mutants together with DsRed using Effectene (Qiagen) and recorded at 13–15 DIV.
(§2) Cells were voltage clamped at −60 mV.
(§3) NMDAR-mediated EPSCs were evoked by direct stimulation of single neighbouring neurons using a loose cell-attached patch electrode filled with Krebs and containing a bipolar stimulating electrode. […] For the pharmacological characterisation of NMDAR-mediated EPSCs, the selective antagonists ifenprodil (+)-hemitartrate (Santacruz biotechnology) and TCN213 (Tocris) were used.
(§4) EPSCs were analysed offline using WinWCP (Strathclyde Electrophysiology Software, UK). Peak EPSC amplitude, the area of the EPSC (charge transfer) and EPSC decays were measured. The decay time constants (τ) were determined by fitting the EPSC decays with a double exponential function. The weighted time constant (τw) was calculated using the following equation, where A indicates the relative area of each time constant.3 τw=((A1.τ1)+(A2.τ2))∕A1+A2.

[3] = test system: hippocampal neurons expressing GluN2B^N615I; assay: as above; assay type: cell-based, rat; settings: 30 μM memantine, 0 Mg^2+
From the text: as §1, §2, §3, §4

[4] = test system: hippocampal neurons expressing GluN2B^V618G; assay: as above; assay type: cell-based, rat; settings: 300 μM memantine, 0 Mg^2+
From the text: as §1, §2, §3, §4

[5] = molecular target: T1, GluN1–GluN2B^V618G (Homo sapiens, UniProt Q05586+Q13224, V618G); assay: Memantine block of glutamate currents in HEK293 cells (concentration–inhibition, I–V, trapping model); assay type: cell-based; set-up: expressed in transfected cells; host or cells: HEK293
Method: (§5) To examine voltage-dependent block of NMDARs, HEK293 cells were voltage clamped at −30 mV, and currents recorded following a voltage (10 mV) step protocol from −90 to +90 mV. […] The current induced by the agonists was determined by subtracting the leak current before plotting the I–V relationship.
(§6) To explain the block of the NMDAR we adopted a trapping based model (Table 2) whereby the antagonist can remain bound to its site (e.g. in the channel) after agonist dissociation.
(§7) The values of k+bo(0 mV) and k+bi(0 mV) were fixed at 5 × 10^7 M^-1 s^-1. […] This allowed k−bo and δMg to be estimated independently. For the permeation model (see below), the same principle was used to define the ion binding rate (k+bi) from the inside of the channel.

[6] = molecular target: T2, GluN1–GluN2B^N615I (Homo sapiens, UniProt Q05586+Q13224, N615I); assay: as above; assay type: cell-based; set-up: expressed in transfected cells; host or cells: HEK293
Method: as §5, §6, §7

[7] = molecular target: T3, GluN1–GluN2B^WT (Homo sapiens, UniProt Q05586+Q13224); assay: as above; assay type: cell-based; set-up: expressed in transfected cells; host or cells: HEK293; settings: for δMem, fraction of membrane potential sensed by memantine: trapping block model fit
Method: as §5, §6, §7

[8] = molecular target: T3, GluN1–GluN2B^WT; assay: Mg2+ block of glutamate currents in HEK293 cells (concentration–inhibition, I–V, trapping model); assay type: cell-based; set-up: expressed in transfected cells; host or cells: HEK293
[9] = molecular target: T1, GluN1–GluN2B^V618G; assay: Mg2+ block of glutamate currents in HEK293 cells (concentration–inhibition, I–V, permeation model); assay type: cell-based; set-up: expressed in transfected cells; host or cells: HEK293; settings: −60 mV; for Effect of external Mg^2+ on glutamate current (Mg2+ block): 1 μM–10 mM Mg^2+
[10] = molecular target: T2, GluN1–GluN2B^N615I; assay: as above; assay type: cell-based; set-up: expressed in transfected cells; host or cells: HEK293; settings: 1 μM–10 mM Mg^2+, −60 mV
[11] = molecular target: T1, GluN1–GluN2B^V618G; assay: Ion permeability experiments in Mg2+ or Ca2+ solution, HEK293 cells; assay type: cell-based; set-up: expressed in transfected cells; host or cells: HEK293; settings: −60 mV
From the text: (§8) To assess Mg^2+ permeability the external solution was altered such that Mg^2+ was the only current-carrying cation (Mg^2+ solution). […] The same result was apparent for GluN1–GluN2B^N615I (Fig. 4a; Table 1). […] To assess whether the channel mutants affected Ca^2+ permeation, we modified the external solution to make Ca^2+ the only current-carrying cation[24] (Ca^2+ solution). […] This implied a significant reduction in Ca^2+ permeation for GluN2B^N615I.
as §2

[12] = molecular target: T2, GluN1–GluN2B^N615I; assay: as above; assay type: cell-based; set-up: expressed in transfected cells; host or cells: HEK293; settings: −60 mV
From the text: as §8, §2

[13] = molecular target: T3, GluN1–GluN2B^WT; assay: as above; assay type: cell-based; set-up: expressed in transfected cells; host or cells: HEK293; settings: −60 mV
From the text: as §8, §2

[14] = test system: GluN1-GluN2A diheteromers; set-up: method as in PMID 22022974; settings: cited from earlier work
[15] = test system: NMDAR-mediated EPSCs, hippocampal neurons; assay: NMDAR-mediated EPSCs in cultured hippocampal neurons, pharmacological characterisation; assay type: cell-based, rat; settings: 30 μM TCN213, 13–15 DIV untransfected neurons
Method: The impact of the GluN2B mutations was assessed on neuronal NMDARs by evoking network-driven NMDAR-mediated EPSCs in hippocampal neurons transfected with either wild-type or mutant GluN2B constructs. Hippocampal cultures were superfused with Krebs containing 10 μM CNQX and 20 μM bicuculline to block non-NMDA receptor and GABAA receptor-mediated currents, respectively. […] To obtain phase-locked EPSCs, a loose cell-attached patch electrode was used to serially stimulate presynaptic neurons yielding evoked EPSCs in postsynaptic neurons.
The relative contributions of GluN2A and GluN2B subunits to NMDAR-mediated currents (at 13–15 DIV) was assessed using the selective antagonists, TCN213 (30 μM, for GluN2A) and ifenprodil (3 μM, for GluN2B).
as §1, §2, §3, §4

[16] = molecular target: GluN1–GluN2B^C461F (Homo sapiens, UniProt Q05586+Q13224, C461F); assay: Glutamate-activated whole-cell currents in HEK293 cells
Method: (§9) We used the alternatively spliced GluN1–4b isoform for co-expression with GluN2B.
(§10) All human NMDAR GluN1 (isoforms GluN1–4b[66]) and GluN2B constructs were cloned into the pRK5 expression vector (CMV promoter) with optimised Kozak sequences.
(§11) Whole-cell currents (in HEK293 cells) and evoked NMDAR-mediated EPSCs (in cultured neurons) were recorded using an AxoPatch 200B amplifier (Molecular Devices, Sunnyvale, CA, USA). […] The experiments using Ca^2+ as the main external ion were performed using a ‘Ca^2+-solution’ containing (mM): 100 CaCl2, 5 HEPES adjusted to pH 7.4 with Ca(OH)2. […] Cells were voltage clamped at −60 mV.
(§12) The rectification index (Ri) is measured from the current-voltage

[17] = molecular target: GluN1-GluN2B R682C (Homo sapiens, UniProt Q05586+Q13224, R682C); assay: Glutamate-activated whole-cell currents in HEK293 cells (mutation screen); settings: saturating glutamate, -30 mV
Method: as §10, §11, §12

[18] = molecular target: T2, GluN1–GluN2B^N615I; assay: Glutamate-activated whole-cell currents in HEK293 cells; settings: 10 μM glycine
Method: as §9, §10, §11, §12

[19] = molecular target: T1, GluN1–GluN2B^V618G; assay: as above
Method: as §9, §10, §11, §12

[20] = molecular target: GluN1–GluN2B^P553L (Homo sapiens, UniProt Q05586+Q13224, P553L); assay: as above
Method: as §9, §10, §11, §12

[21] = molecular target: GluN1-GluN2B L825V (Homo sapiens, UniProt Q05586+Q13224, L825V); assay: Glutamate-activated whole-cell currents in HEK293 cells (mutation screen); settings: saturating glutamate, -30 mV
Method: as §10, §11, §12

[22] = test system: GluN1-GluN2BA636P; assay: as above; settings: up to 3 mM glutamate
Method: as §10, §11, §12

[23] = molecular target: GluN1-GluN2B R540H (Homo sapiens, UniProt Q05586+Q13224, R540H); assay: as above; settings: saturating glutamate, -30 mV
Method: as §10, §11, §12

[24] = molecular target: T3, GluN1–GluN2B^WT; assay: Glutamate-activated whole-cell currents in HEK293 cells (concentration–response, current density, desensitisation)
Method: as §9, §10, §11, §12

[25] = test system: GluN1-GluN2BC456Y; assay: Glutamate-activated whole-cell currents in HEK293 cells (mutation screen); settings: up to 3 mM glutamate
Method: as §10, §11, §12

[26] = after removal of 10 μM glutamate + 10 μM glycine, range of memantine concentrations
[27] = Mg^2+ solution (100 mM), 10 μM glutamate and 10 μM glycine
[28] = current in Mg^2+ solution as % of current in Krebs
[29] = saturating glutamate, 10 μM glycine, −30 mV

T2 sequence (Q13224 27-1484 N615I, other chains not shown): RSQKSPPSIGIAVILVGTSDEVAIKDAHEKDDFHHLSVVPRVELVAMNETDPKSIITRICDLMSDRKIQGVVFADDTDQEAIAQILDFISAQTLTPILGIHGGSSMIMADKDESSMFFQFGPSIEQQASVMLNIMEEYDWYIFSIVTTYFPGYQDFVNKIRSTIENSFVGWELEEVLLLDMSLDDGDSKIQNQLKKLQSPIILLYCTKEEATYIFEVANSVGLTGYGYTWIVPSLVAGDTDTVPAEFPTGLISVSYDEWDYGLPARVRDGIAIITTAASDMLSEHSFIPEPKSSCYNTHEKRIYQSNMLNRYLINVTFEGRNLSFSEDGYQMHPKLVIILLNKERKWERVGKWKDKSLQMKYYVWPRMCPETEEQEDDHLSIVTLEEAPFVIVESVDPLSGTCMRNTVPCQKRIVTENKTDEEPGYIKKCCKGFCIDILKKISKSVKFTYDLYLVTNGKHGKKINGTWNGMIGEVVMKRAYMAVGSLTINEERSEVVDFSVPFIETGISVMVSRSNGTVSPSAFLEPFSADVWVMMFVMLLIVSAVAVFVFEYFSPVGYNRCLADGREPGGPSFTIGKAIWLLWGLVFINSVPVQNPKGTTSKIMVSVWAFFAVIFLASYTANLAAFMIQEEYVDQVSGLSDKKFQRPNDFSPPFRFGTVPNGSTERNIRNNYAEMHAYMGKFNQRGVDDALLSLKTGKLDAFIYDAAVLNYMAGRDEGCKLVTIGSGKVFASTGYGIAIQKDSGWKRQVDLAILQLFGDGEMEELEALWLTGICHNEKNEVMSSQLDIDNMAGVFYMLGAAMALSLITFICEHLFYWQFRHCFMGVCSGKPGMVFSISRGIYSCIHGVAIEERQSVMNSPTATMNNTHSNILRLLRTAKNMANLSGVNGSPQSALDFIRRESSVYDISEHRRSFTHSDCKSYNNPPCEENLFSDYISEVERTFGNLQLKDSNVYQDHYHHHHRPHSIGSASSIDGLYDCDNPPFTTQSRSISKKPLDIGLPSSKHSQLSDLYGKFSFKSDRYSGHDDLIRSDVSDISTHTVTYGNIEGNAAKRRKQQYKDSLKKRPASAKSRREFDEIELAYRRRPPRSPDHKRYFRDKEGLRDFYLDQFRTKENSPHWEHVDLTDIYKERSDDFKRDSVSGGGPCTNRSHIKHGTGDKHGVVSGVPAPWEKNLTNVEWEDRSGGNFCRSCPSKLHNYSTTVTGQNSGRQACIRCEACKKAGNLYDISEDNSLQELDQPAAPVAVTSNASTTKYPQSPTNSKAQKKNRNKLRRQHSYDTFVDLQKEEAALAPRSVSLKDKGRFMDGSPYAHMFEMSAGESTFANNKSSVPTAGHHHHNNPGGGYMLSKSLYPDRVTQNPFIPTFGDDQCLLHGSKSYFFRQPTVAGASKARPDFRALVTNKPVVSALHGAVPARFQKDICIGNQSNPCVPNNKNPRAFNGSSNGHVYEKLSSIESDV
Chain of GluN1–GluN2B^P553L (Q13224 27-1484 P553L, other chains not shown): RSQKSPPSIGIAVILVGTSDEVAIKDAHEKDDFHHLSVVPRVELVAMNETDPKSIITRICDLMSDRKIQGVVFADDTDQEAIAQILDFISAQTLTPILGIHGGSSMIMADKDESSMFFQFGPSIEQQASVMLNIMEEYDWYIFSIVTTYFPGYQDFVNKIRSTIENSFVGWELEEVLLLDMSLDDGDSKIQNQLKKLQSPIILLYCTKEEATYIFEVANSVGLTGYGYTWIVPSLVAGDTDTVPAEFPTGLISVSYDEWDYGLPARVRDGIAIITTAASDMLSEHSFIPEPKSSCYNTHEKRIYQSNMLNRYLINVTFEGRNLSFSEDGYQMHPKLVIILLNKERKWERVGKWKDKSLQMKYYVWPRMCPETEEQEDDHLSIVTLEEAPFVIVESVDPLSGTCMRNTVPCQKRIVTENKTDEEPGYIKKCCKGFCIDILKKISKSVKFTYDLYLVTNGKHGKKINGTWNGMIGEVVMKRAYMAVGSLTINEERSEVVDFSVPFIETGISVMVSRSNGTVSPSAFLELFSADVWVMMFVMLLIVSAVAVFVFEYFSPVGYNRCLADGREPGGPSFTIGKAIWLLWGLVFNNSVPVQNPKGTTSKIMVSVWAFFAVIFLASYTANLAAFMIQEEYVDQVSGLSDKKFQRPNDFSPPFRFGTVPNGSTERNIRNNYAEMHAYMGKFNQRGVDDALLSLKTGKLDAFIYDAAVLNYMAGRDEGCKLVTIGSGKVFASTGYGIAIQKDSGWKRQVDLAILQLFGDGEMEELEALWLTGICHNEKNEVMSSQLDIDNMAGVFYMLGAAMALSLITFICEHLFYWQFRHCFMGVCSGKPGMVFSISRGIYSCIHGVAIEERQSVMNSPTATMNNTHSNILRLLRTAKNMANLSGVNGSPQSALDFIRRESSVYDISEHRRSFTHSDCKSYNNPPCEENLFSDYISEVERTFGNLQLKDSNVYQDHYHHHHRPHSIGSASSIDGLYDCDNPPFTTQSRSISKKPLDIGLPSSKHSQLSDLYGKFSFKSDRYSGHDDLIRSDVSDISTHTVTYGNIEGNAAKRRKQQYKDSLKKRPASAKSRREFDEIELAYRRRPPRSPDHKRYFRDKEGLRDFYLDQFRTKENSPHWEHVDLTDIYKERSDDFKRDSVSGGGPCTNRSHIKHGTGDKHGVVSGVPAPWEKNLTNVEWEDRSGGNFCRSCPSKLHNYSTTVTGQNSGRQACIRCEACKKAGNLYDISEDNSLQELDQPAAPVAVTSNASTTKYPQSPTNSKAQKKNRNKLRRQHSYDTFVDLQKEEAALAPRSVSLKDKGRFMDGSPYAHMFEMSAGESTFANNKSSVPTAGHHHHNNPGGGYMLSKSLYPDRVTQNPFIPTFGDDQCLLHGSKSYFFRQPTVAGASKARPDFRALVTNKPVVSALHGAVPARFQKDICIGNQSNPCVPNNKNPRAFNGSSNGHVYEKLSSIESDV
T3 sequence (Q13224 27-1484, other chains not shown): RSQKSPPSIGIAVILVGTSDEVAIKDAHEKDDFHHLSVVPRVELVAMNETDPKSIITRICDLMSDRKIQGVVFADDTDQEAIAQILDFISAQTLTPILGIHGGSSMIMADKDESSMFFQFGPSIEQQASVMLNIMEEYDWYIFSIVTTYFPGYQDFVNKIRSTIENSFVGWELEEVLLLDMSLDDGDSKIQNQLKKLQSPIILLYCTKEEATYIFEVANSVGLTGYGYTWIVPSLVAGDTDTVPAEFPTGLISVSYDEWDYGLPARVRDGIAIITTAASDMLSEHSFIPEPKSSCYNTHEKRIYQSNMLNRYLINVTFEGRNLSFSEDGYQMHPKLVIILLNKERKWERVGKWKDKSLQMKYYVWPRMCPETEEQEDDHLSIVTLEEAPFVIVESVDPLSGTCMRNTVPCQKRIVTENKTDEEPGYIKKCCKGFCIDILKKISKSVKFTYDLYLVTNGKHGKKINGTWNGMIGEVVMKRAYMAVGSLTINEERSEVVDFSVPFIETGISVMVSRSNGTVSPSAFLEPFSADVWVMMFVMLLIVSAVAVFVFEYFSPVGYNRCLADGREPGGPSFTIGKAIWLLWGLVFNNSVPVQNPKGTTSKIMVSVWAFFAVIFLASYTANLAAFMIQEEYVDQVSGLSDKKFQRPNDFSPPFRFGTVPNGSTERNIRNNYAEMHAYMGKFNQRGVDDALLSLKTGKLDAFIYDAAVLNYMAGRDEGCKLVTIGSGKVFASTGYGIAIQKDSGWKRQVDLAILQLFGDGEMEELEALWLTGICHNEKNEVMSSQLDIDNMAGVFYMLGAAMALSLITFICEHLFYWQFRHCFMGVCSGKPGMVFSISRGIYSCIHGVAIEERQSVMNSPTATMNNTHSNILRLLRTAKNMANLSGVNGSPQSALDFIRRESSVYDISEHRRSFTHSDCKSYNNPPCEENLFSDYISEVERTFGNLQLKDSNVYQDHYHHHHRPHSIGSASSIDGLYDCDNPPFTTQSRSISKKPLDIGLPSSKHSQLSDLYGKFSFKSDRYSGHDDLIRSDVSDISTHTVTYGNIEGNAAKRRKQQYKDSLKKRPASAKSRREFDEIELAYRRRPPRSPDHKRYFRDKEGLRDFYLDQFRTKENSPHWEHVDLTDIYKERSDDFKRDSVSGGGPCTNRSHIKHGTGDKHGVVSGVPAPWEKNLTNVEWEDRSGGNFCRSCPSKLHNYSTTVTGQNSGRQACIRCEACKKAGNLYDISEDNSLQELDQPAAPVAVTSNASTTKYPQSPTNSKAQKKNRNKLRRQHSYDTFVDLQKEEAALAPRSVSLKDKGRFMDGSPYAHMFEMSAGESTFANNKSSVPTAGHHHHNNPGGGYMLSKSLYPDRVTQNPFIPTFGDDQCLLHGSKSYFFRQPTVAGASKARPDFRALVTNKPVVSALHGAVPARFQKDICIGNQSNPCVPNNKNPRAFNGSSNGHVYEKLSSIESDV

Compound: CC12CC3CC(C)(C1)CC(N)(C3)C2 [Memantine, memantine]
Fraction charged at physiological pH [1]: 99.95%
Inhibition of peak EPSC amplitude and charge transfer by memantine [2]: inhibited to a comparable extent
Inhibition of peak EPSC amplitude and charge transfer by memantine [3]: inhibited to a comparable extent
Inhibition of peak EPSC amplitude and charge transfer by memantine [4]: inhibited to a comparable extent
Effect of memantine on deactivation time constant (τ) [5, 26]: did not affect
δMem, fraction of membrane potential sensed by memantine ([5]; trapping block model fit): 0.42 ± 0.03
Effect of memantine on deactivation time constant (τ) [6, 26]: did not affect
δMem, fraction of membrane potential sensed by memantine ([6]; trapping block model fit): 0.42 ± 0.11
Effect of memantine on deactivation time constant (τ) [7, 26]: did not affect
δMem, fraction of membrane potential sensed by memantine [7]: 0.65 ± 0.026
δMem, fraction of membrane potential sensed by memantine ([7]; listed as memantine): 0.65 ± 0.03

k-bi (0mV), Mg2+ unbinding rate constant to inside ([8]; predicted rate constant, 0 mV): 25124 s⁻¹
k-bo (0mV), Mg2+ unbinding rate constant to outside ([8]; predicted rate constant, 0 mV): 24686 s⁻¹
Kd ([8]; read-out: Dissociation constant for Mg^2+ binding at −60 mV, trapping block model, −60 mV): 123 µM
IC50 ([8]; read-out: Mg^2+ IC50 (−60 mV), 10 μM glutamate and 10 μM glycine, −60 mV): 142 µM
δMg, fraction of membrane potential sensed by Mg^2+ ([8]; trapping block model fit): 0.88 ± 0.04
Effect of external Mg^2+ on glutamate current (Mg2+ block) [9]: unaffected by external Mg^2+
Effect of external Mg^2+ on glutamate current (Mg2+ block) ([9]; listed as Mg2+): insensitive to Mg2+
Change in current at high Mg^2+ concentrations ([9]; 3–10 mM Mg^2+): small increase in current
Effect of external Mg^2+ on glutamate current (Mg2+ block) [10]: unaffected by external Mg^2+
Effect of external Mg^2+ on glutamate current (Mg2+ block) ([10]; listed as Mg2+): insensitive to Mg2+
IMg current density [11, 27]: −10.28 ± 2.53 pA/pF
IMg current density [12, 27]: −0.09 ± 0.03 pA/pF
IMg current density [13, 27]: −0.07 ± 0.03 pA/pF
Compound: [Mg+2] [Mg^2+]
IMg/IKrebs [11, 28]: 58.4 ± 9.8% and 58.46 ± 9.8 %
IMg/IKrebs [12, 28]: 1.63 ± 0.64%
IMg/IKrebs [13, 28]: 0.91 ± 0.37%

Compound: O=C(CSc1nnc(NCc2ccccc2)s1)NCC1CCCCC1 [TCN213]
IC50 [14]: ~30 µM
Prolongation of EPSC decay [15]: 40%
Reduction of peak EPSC amplitude [15]: 10%

Compound: N[C@@H](CCC(=O)O)C(=O)O [glutamate]
Hill slope (n) of glutamate concentration–response curve ([16]; 10 μM glycine): 1.44 ± 0.03
Glutamate current density (maximal current/cell capacitance) ([16]; saturating glutamate, -30 mV): -6.49 ± 3.94 pA/pF
Reduction of glutamate potency compared to wild-type ([16]; vs GluN1–GluN2B WT): 71 fold
Glutamate current density (maximal current/cell capacitance) [17]: -15.34 ± 2.56 pA/pF
Hill slope (n) of glutamate concentration–response curve [18]: 1.27 ± 0.13
Hill slope (n) of glutamate concentration–response curve ([19]; 10 μM glycine): 1.23 ± 0.12
Glutamate current density (maximal current/cell capacitance) ([19]; saturating glutamate, -30 mV): -17.55 ± 3.35 pA/pF
Hill slope (n) of glutamate concentration–response curve ([20]; 10 μM glycine): 0.89 ± 0.05
Glutamate current desensitisation decay τ [20, 29]: 420.3 ± 30.1 ms
Glutamate current density (maximal current/cell capacitance) ([20]; saturating glutamate, -30 mV): -15.31 ± 3.70 pA/pF
Reduction of glutamate potency compared to wild-type ([20]; vs GluN1–GluN2B WT): 1.7 fold
Glutamate current density (maximal current/cell capacitance) [21]: -19.06 ± 3.65 pA/pF
Glutamate current [22]: No glutamate current was detected
Glutamate current density (maximal current/cell capacitance) [23]: -30.31 ± 7.71 pA/pF
Hill slope (n) of glutamate concentration–response curve ([24]; 10 μM glycine): 1.45 ± 0.12
Glutamate current desensitisation decay τ [24, 29]: 21.17 ± 0.31 s
Glutamate current density (maximal current/cell capacitance) ([24]; saturating glutamate, -30 mV): -20.36 ± 4.54 pA/pF
Glutamate current [25]: No glutamate current was detected
